Reference: patent publication US9845292B2 (Max-Planck-Gesellschaft zur Förderung der Wissenschaften …, priority 2013, dated 2017)
pKi: −log10 of the molar value. Read-outs that look alike come from different tables or passages of the source.

Columns and labels:
FKBP52 = target: T1, FKBP52 (Homo sapiens, UniProt Q02790); test: Fluorescence polarization binding assay, FK1-domain of FKBP52WT with tracer F2 (selectivity FKBP51 vs. FKBP52); settings: selectivity factor over FKBP52
T1 construct: Purified FK1-domains of FKBP51WT (4.5 nM) with F4 (3 nM), FKBP52WT (400 nM) with F2 (20 nM); implied by Ni-NTA purification) (N); made in house; host or cells: E. coli BL21(DE3)pLysS
T1 sequence (Q02790 50-138 limits assumed): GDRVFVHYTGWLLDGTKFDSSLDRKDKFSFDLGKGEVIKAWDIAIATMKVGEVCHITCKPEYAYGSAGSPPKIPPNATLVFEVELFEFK
Description: (§1) The target protein was also diluted in this assay buffer at double the highest concentration required for the final sample. This protein stock was used for a 1:1 serial dilution.
(§2) The inventive compound was dissolved in DMSO to reach a 100-times concentrated stock solution. This was used for a 1:1 serial dilution in DMSO.
(§3) For FKBP12, −51, and −52 the binding assays were performed in duplicates in the plate format.
(§4) The competition curves were analyzed by using SigmaPlot9. Data were fitted to a four parameter logistic curve to deduce the IC50 values. […] A=(Amax−Amin)/[L]t×(([L]t×((2×((Klig+Kcomp+[L]t+[I]t−[R]t)^2−3×(Kcomp×([L]t−[R]t)+Klig×([I]t−[R]t)+Klig×Kcomp))^0.5×COS(ARCCOS((−2×(Klig+Kcomp+[L]t+[I]t−[R]t)^3+9×(Klig+Kcomp+[L]t+[I]t−[R]t)×(Kcomp×([L]t−[R]t)+Klig×([I]t−[R]t)+Klig×Kcomp)−27×(−1×Klig×Kcomp×[R]t))/(2×((((Klig+Kcomp+[L]t+[I]t−[R]t)^2−3×(Kcomp×([L]t−[R]t)+Klig×([I]t−[R]t)+Klig×Kcomp))^3)^0.5)))/3))−(Klig+Kcomp+[L]t+[I]t−[R]t)))/((3×Klig)+((2×((Klig+Kcomp+[L]t+[I]t−[R]t)^2−3×(Kcomp×([L]t−[R]t)+Klig×([I]t−[R]t)+Klig×Kcomp))^0.5×COS(ARCCOS((−2×(Klig+Kcomp+[L]t+[I]t−[R]t)^3+9×(Klig+Kcomp+[L]t+[I]t−[R]t)×(Kcomp×([L]t−[R]t)+Klig×([I]t−[R]t)+Klig×Kcomp)−27×(−1×Klig×Kcomp×[R]t))/(2×((((Klig+Kcomp+[L]t+[I]t−[R]t)^2−3×(Kcomp×([L]t−[R]t)+Klig×([I]t−[R]t)+Klig×Kcomp))^3)^0.5)))/3))−(Klig+Kcomp+[L]t+[I]t−[R]t))))+Amin
(§5) In this equation Klig and Kcomp stand for the Kd values of the used tracer or competing inhibitor, [I]t is referring to the total concentration of the titrated inhibitor.
The Selectivity of the Compounds was Classified by Ki(FKBP51)/Ki(FKBP52)
(§6) Inhibition constants were measured in a fluorescence polarization binding assay by titrating the compounds.

FKBP51 = target: T2, FKBP51 (Homo sapiens, UniProt Q13451); test: Fluorescence polarization binding assay, FK1-domain of FKBP51WT with tracer F4; set-up: Purified FK1-domains of FKBP51WT (4.5 nM) with F4 (3 nM), FKBP52WT (400 nM) with F2 (20 nM); made in house; host or cells: E. coli BL21(DE3)pLysS; settings: read-out: Affinity(Ki) for FKBP51
T2 sequence (Q13451 42-130 limits assumed): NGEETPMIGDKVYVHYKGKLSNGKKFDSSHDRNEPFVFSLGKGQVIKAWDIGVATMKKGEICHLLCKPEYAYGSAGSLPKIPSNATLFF
Description: as §1, §2, §3, §4, §5, §6

[1] = FKBP52WT (400 nM) with F2 (20 nM), A series
[2] = FK1-domain of FKBP51WT (4.5 nM) with F4 (3 nM), A series

| Compound | Ki(FKBP51)/Ki(FKBP52) (FKBP52; compounds B01-C25) | pKi (FKBP51; compounds B01-C25) | Ki(FKBP51)/Ki(FKBP52) (FKBP52; [1]) | pKi (FKBP51; [2]) |
| --- | --- | --- | --- | --- |
| COc1cc([C@@H](C(=O)N2CCCC[C@H]2C(=O)OC2CCOCC2)C2CCCCC2)cc(OC)c1OC [Compound C12, (S)-tetrahydro-2H-pyran-4-yl-1-((S)-2-cyclohexyl-2-(3,4,5-trimethoxyphenyl)acetyl)piperidine-2-carboxylate] | +++ (>500 +++) | 5.00 to 6.00 | – | – |
| COc1ccc(CCC(OC(=O)[C@@H]2CCCCN2C(=O)C(NC(=O)C2N=CN=N2)C2CCCCC2)c2cccc(OCC(=O)O)c2)cc1OC (stereo partly drawn) [Compound A27, 2-(3-(1-(((2S)-1-(2-cyclohexyl-2-(3H-1,2,4-triazole-3-carboxamido)acetyl)piperidine-2-carbonyl)oxy)-3-(3,4-dimethoxyphenyl)propyl)phenoxy)acetic acid] | – | – | + (>5 +) | 4.30 to 5.00 |
| COc1ccc(CC[C@@H](OC(=O)[C@@H]2CCCCN2C(=O)[C@@H](CC2CC2)c2cc(OC)c(OC)c(OC)c2)c2cccc(OCC(=O)O)c2)cc1OC [Reference A07, 2-(3-((R)-1-(((S)-1-((S)-3-cyclopropyl-2-(3,4,5-trimethoxyphenyl)propanoyl)piperidine-2-carbonyl)oxy)-3-(3,4-dimethoxyphenyl)propyl)phenoxy)acetic acid] | – | – | not selective (<5 not selective) | 4.30 to 5.00 |
| CC[C@H](C)OC(=O)[C@@H]1CCCCN1C(=O)[C@H](c1cc(OC)c(OC)c(OC)c1)C1CCCCC1 [Compound C07, (S)-(S)-sec-butyl-1-((S)-2-cyclohexyl-2-(3,4,5-trimethoxyphenyl)acetyl) piperidine-2-carboxylate] | ++ (>50 ++) | 4.30 to 5.00 | – | – |
| COc1ccc(CCC(OC(=O)[C@@H]2CCCCN2C(=O)C(NC(=O)c2ccccc2O)C2CCCCC2)c2cccc(OCC(=O)O)c2)cc1OC (stereo partly drawn) [Compound A24, 2-(3-(1-(((2S)-1-(2-cyclohexyl-2-(2-hydroxybenzamido)acetyl)piperidine-2-carbonyl)oxy)-3-(3,4-dimethoxyphenyl)propyl)phenoxy)acetic acid] | – | – | + (>5 +) | 4.30 to 5.00 |
| COc1cc([C@@H](C(=O)N2CCCC[C@H]2C(=O)OCCO)C2CCCCC2)cc(OC)c1OC [Compound C20, (S)-2-hydroxyethyl-1-((S)-2-cyclohexyl-2-(3,4,5-trimethoxyphenyl)acetyl)piperidine-2-carboxylate] | +++ (>500 +++) | 5.00 to 6.00 | – | – |
| COc1cc([C@@H](C(=O)N2CCCC[C@H]2C(=O)N[C@H](C(N)=O)C2CCCCC2)C2CCCCC2)cc(OC)c1OC [Compound B18, (S)-N-((S)-2-amino-1-cyclohexyl-2-oxoethyl)-1-((S)-2-cyclohexyl-2-(3,4,5-trimethoxyphenyl)acetyl)piperidine-2-carboxamide] | ++ (>50 ++) | 5.00 to 6.00 | – | – |
| C=CCOC(=O)[C@@H]1CCCCN1C(=O)[C@H](c1cc(OC)c(OC)c(OC)c1)C1CCCCC1 [Compound C17, (S)-allyl-1-((S)-2-cyclohexyl-2-(3,4,5-trimethoxyphenyl)acetyl)piperidine-2-carboxylate] | ++ (>50 ++) | 4.30 to 5.00 | – | – |
| COc1cc([C@@H](C(=O)N2CCCC[C@H]2C(=O)N[C@H](Cc2ccccc2)C(N)=O)C2CCCCC2)cc(OC)c1OC [Compound B06, (S)-N-((R)-1-amino-1-oxo-3-phenylpropan-2-yl)-1-((S)-2-cyclohexyl-2-(3,4,5-trimethoxyphenyl)acetyl)piperidine-2-carboxamide] | ++ (>50 ++) | 5.00 to 6.00 | – | – |
| COc1ccc(CC[C@@H](NC(=O)[C@@H]2CCCCN2C(=O)[C@H](c2cc(OC)c(OC)c(OC)c2)C2CCCCC2)c2cccc(OCC(=O)O)c2)cc1OC [Compound A22, 2-(3-((R)-1-((S)-1-((S)-2-cyclohexyl-2-(3,4,5-trimethoxyphenyl)acetyl)piperidine-2-carboxamido)-3-(3,4-dimethoxyphenyl)propyl)phenoxy)acetic acid] | – | – | ++ (>50 ++) | 6.00 to 7.00 |
| COc1cc([C@@H](C(=O)N2CCCC[C@H]2C(=O)OC(C)(C)C)C2CCCCC2)cc(OC)c1OC [Compound C10, (S)-tert-butyl-1-((S)-2-cyclohexyl-2-(3,4,5-trimethoxyphenyl)acetyl)piperidine-2-carboxylate] | +++ (>500 +++) | 5.00 to 6.00 | – | – |
| COc1ccc(CCC(OC(=O)[C@@H]2CCCCN2C(=O)C(NC(=O)c2cc(Cl)cc(Cl)c2)C2CCCCC2)c2cccc(OCC(=O)O)c2)cc1OC (stereo partly drawn) [Compound A28, 2-(3-(1-(((2S)-1-(2-cyclohexyl-2-(3,5-dichlorobenzamido)acetyl)piperidine-2-carbonyl)oxy)-3-(3,4-dimethoxyphenyl)propyl)phenoxy)acetic acid] | – | – | + (>5 +) | 4.30 to 5.00 |
| C=CC[C@H](C(=O)N1CCCC[C@H]1C(=O)N[C@H](CCc1ccc(OC)c(OC)c1)c1cccc(OCCN2CCOCC2)c1)c1cc(OC)c(OC)c(OC)c1 [Compound A05, (S)-N-((R)-3-(3,4-dimethoxyphenyl)-1-(3-(2-morpholinoethoxy)phenyl)propyl)-1-((S)-2-(3,4,5-trimethoxyphenyl)pent-4-enoyl)piperidine-2-carboxamide] | – | – | + (>5 +) | 5.00 to 6.00 |
| COc1cc([C@@H](C(=O)N2CCCC[C@H]2C(=O)OC(C)C)C2CCCCC2)cc(OC)c1OC [Compound C04, (S)-isopropyl 1-((S)-2-cyclohexyl-2-(3,4,5-trimethoxyphenyl)acetyl)piperidine-2-carboxylate] | +++ (>500 +++) | 6.00 to 7.00 | – | – |
| COc1cc([C@@H](C(=O)N2CCCC[C@H]2C(=O)NC(C)(C)CC(N)=O)C2CCCCC2)cc(OC)c1OC [Compound B25, (S)-N-(4-amino-2-methyl-4-oxobutan-2-yl)-1-((S)-2-cyclohexyl-2-(3,4,5-trimethoxyphenyl)acetyl)piperidine-2-carboxamide] | +++ (>500 +++) | 5.00 to 6.00 | – | – |
| COc1cc([C@@H](C(=O)N2CCCC[C@H]2C(=O)NC2(C(N)=O)CCCCC2)C2CCCCC2)cc(OC)c1OC [Compound B31, (S)-N-(1-carbamoylcyclohexyl)-1-((S)-2-cyclohexyl-2-(3,4,5-trimethoxyphenyl)acetyl)piperidine-2-carboxamide] | ++ (>50 ++) | 5.00 to 6.00 | – | – |
| C=CC[C@H](C(=O)N1CCCC1C(=O)OC(CCc1ccc(OC)c(OC)c1)c1cccc(OCCN2CCOCC2)c1)c1cc(OC)c(OC)c(OC)c1 (stereo in doubt) [Reference A33, (S)-(R)-3-(3,4-Dimethoxyphenyl)-1-(3-(2-morpholinoethoxy)phenyl)propyl-1-((S)-2-(3,4,5-trimethoxyphenyl)pent-4-enoyl)pyrrolidine-2-carboxylate] | – | – | not selective (<5 not selective) | – |
| C=CC[C@H](C(=O)N1CCSC[C@H]1C(=O)O[C@H](CCc1ccc(OC)c(OC)c1)c1cccc(OCCN2CCOCC2)c1)c1cc(OC)c(OC)c(OC)c1 [Reference A34, (R)-(R)-3-(3,4-Dimethoxyphenyl)-1-(3-(2-morpholinoethoxy)phenyl)propyl-4-((S)-2-(3,4,5-trimethoxyphenyl)pent-4-enoyl)thiomorpholine-3-carboxylate] | – | – | not selective (<5 not selective) | – |
